Data set [1] can be described thus: Serum concentration curve of NAEK after oral administration. The format is in vivo. The note with it: mice, 30 mg NAEK or equimolar amount. As to the method:
FIG. 5B. […] The NAEK content in the serum reached a maximum of about 1.6 μg/mL two hours after oral administration, as evidenced by the curve in the NAEK-aqueous solution group. Subsequently, 8 hours after oral administration, the NAEK content in the serum diminished to nearly zero, indicating rapid metabolism of NAEK, which could be completed in 6 hours. […] Furthermore, only 22 hours after oral administration, the serum NAEK content approached zero, indicating complete metabolism within approximately […].
Two experimental groups were set, with 12 mice in each group. In one group, each mouse was orally administered with 30 mg NAEK aqueous solution, and in the other group, each mouse was orally administered with an equimolar amount of Ch-NAEK. Blood was collected from the orbital plexus of the mice at 1 h, 2 h, 4 h, 6 h, 8 h, 9 h, 10 h, 14 h, 19 h, and 22 h time points to plot the NAEK serum concentration in mice as function of time (FIG. 5B).

The test system of another data set is mdx mice. As to the kind of experiment: Full-length expression of Dystrophin in muscle tissue by immunoblotting. The data set is classed as in vivo. The settings on record: mdx mice with AAV-MmpylRS-tRNA, oral, 2 weeks. As to the method: FIG. 12. Flow Diagram of Treating DMD Disease in Mdx Mouse Model Using Ionic Liquid Ch-NAEK and the Codon Expansion System Experimental exploration was conducted to investigate the treatment of DMD disease. Following successful synthesis, identification and activity evaluation of the three ionic liquids Ch-NAEK, Ch-pAcF and Ch-Anap, Ch-NAEK was selected as the preferred ionic liquid for subsequent disease treatment. mdx mice with DMD disease were initially intramuscularly injected with AAV-MmpylRS-tRNA virus and subsequently orally administered with Ch-NAEK (at a mass volume fraction of 70%) daily for four weeks. Muscle tissue samples were collected in the first, second, and fourth weeks for detection of Dystrophin protein restoration. HE pathological staining of mouse muscle tissue, determination of serum CK kinase content, and testing of mouse grip strength were performed.
mdx mice, a classic mouse model for DMD (Duchenne Muscular Dystrophy) research, have a nonsense mutation of TAA at the […] of Dystrophin exon, resulting in the failure of normal expression of Dystrophin, and thus leading to symptoms of muscle atrophy in muscle and heart tissues in mice. mdx mice injected with AAV-MmpylRS-tRNA virus were divided into two experimental groups. […] The therapeutic effects were evaluated at the time points of 1, 2, and 4 weeks after administration. […]
(A western blot detects proteins with antibodies after separation by electrophoresis.)

Data on 1 molecule can be found in patent US20240318220A1, “IONIC LIQUIDS BASED ON UNNATURAL AMINO ACIDS, PREPARATION METHODS THEREOF, AND APPLICATIONS THEREOF” (PEKING UNIVERSITY, priority 2022, published 2024).

For `[N-]=[N+]=NCCOC(=O)NCCCC[C@H](N)C(=O)O` [NAEK-aqueous solution], in data set [1], the “maximum NAEK content in serum” value was “about 1.6 μg/mL”, the “time after oral administration at which serum NAEK content approached zero” value was 8 h, the “time for complete metabolism of NAEK” value stood at 6 h and the “time of maximum serum NAEK content after oral administration” value is “two”. Moreover, the “restoration of full-length disease protein (Dystrophin) expression, in words” value with mdx mice is on record as “very low”.
